Experimental data published in US20230000870A1, “METHODS OF TREATING CANCER IN BIOMARKER-IDENTIFIED PATIENTS WITH INHIBITORS OF CYCLIN-DEPENDENT KINASE 7 (CDK7)” (Syros Pharmaceuticals, Inc., priority 2019, published 2023).

Columns and labels:
CDK2/Cyclin E1 complex = CDK2/Cyclin E1 complex (Homo sapiens, UniProt P24941); test: CDK2 kinase inhibition assay (Caliper/LabChip EZ Reader); type: biochemical; conditions: CDK2/Cyclin E1 0.5 nM, ATP 2 mM, 35 min at 27° C.
Summary of the method: (§1)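 Caliper/LabChip mobility-shift kinase assays at 27° C. CDK9/Cyclin T1 8 nM with 2 μM 5-FAM-CDK9tide, 10 mM MgCl2, 15 min; CDK12/Cyclin K 50 nM with 5-FAM-CDK9tide 2 μM, 2 mM MgCl2, 3 hr; CDK2/Cyclin E1 0.5 nM with 5-FAM-CDK7tide 2 μM, 2 mM MgCl2, 35 min; CDK7 35 min.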

[1] = molecular target: CDK7/Cyclin H/MAT1 complex (Homo sapiens, UniProt P50613); test: CDK7 kinase inhibition assay (Caliper/LabChip EZ Reader); type: biochemical; conditions: CDK7/Cyclin H/MAT1 6 nM, ATP 2 mM, 35 min at 27° C.
Summary of the method: as §1

CDK9/Cyclin T1 complex = CDK9/Cyclin T1 complex (Homo sapiens, UniProt P50750); test: CDK9 kinase inhibition assay (Caliper/LabChip EZ Reader); type: biochemical; conditions: CDK9/Cyclin T1 8 nM, ATP 2 mM, 15 min at 27° C.
Summary of the method: as §1

[2] = molecular target: T1, CDK12 (aa686-1082)/Cyclin K complex (Homo sapiens, UniProt Q9NYV4); test: CDK12 kinase inhibition assay (Caliper/LabChip EZ Reader); type: biochemical; conditions: CDK12 (aa686-1082)/Cyclin K 50 nM, ATP 2 mM, 3 hr at 27° C.
T1 construct: CDK12 (aa686-1082)/Cyclin K complex
Summary of the method: as §1

A673 cells = test: Inhibition of proliferation of A673 cells (CyQUANT, 72 hour); type: cell-based, human; conditions: read-out: Inhibition of Proliferation of A673 Cells (calculated IC50)
Summary of the method: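 Human Ewing's sarcoma A673 cells in DMEM + 10% FBS + 1 mM sodium pyruvate, 37 °C, 5% CO2. Compounds in 0.5-log serial dilutions, stated range 4 μM to […], for 72 h. Anti-proliferative effect read with CyQUANT per kit directions.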

HCC70 cells = test: Inhibition of proliferation of HCC70 cells (CyQUANT Direct, 72 hour); type: cell-based, human; conditions: read-out: Inhibition of Proliferation of HCC70 Cells (calculated IC50)
Summary of the method: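 Human triple-negative breast cancer cells grown in RPMI-1640 + 10% FBS at 37 °C, 5% CO2, treated with compounds from 4 μM to […] in 0.5 log steps. Proliferation over 72 h was read by CyQUANT Direct.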

Sequence of CDK9/Cyclin T1 complex (P50750 whole entry): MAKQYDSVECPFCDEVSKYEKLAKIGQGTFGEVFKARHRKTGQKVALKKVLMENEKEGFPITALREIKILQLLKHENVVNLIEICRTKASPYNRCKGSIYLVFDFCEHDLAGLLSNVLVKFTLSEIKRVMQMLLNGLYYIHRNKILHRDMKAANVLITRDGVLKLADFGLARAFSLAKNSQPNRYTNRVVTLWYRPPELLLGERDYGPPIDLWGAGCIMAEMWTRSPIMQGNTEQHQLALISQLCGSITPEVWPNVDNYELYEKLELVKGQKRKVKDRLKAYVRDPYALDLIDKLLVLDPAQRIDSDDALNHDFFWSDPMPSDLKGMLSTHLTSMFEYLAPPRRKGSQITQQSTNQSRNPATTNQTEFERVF
Sequence of CDK9/Cyclin T1 complex (O60563 whole entry partner): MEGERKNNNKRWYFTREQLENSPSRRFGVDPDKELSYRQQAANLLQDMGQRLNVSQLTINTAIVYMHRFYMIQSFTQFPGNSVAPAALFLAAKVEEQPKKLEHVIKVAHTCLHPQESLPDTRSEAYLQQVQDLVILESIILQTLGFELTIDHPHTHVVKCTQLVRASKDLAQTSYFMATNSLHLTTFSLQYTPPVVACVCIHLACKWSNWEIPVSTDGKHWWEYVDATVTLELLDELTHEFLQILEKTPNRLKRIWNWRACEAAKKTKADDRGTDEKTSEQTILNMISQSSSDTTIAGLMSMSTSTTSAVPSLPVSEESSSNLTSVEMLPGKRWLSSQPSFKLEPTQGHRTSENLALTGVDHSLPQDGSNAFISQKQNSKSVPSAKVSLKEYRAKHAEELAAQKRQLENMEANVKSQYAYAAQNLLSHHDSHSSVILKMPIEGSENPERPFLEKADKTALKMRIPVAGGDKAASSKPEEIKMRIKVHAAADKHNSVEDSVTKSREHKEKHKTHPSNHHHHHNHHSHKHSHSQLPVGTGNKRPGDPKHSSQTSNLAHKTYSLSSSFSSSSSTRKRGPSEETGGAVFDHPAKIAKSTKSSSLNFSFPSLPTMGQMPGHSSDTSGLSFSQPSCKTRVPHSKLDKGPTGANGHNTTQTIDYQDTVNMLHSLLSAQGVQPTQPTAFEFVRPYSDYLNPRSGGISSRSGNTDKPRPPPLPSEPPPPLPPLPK
T1 sequence (Q9NYV4 686-1082): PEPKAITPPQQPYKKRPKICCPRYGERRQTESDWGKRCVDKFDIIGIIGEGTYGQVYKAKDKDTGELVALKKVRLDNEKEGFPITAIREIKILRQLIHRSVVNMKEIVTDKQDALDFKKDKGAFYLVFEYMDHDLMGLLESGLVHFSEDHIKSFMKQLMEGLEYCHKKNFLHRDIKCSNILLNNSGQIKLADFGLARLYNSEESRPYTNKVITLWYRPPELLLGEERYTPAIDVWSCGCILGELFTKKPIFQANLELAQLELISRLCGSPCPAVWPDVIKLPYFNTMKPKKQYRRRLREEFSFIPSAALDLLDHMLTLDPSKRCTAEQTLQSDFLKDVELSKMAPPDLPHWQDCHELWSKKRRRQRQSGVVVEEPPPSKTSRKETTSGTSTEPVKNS
T1 sequence (O75909 whole entry partner, the tested form may be a part): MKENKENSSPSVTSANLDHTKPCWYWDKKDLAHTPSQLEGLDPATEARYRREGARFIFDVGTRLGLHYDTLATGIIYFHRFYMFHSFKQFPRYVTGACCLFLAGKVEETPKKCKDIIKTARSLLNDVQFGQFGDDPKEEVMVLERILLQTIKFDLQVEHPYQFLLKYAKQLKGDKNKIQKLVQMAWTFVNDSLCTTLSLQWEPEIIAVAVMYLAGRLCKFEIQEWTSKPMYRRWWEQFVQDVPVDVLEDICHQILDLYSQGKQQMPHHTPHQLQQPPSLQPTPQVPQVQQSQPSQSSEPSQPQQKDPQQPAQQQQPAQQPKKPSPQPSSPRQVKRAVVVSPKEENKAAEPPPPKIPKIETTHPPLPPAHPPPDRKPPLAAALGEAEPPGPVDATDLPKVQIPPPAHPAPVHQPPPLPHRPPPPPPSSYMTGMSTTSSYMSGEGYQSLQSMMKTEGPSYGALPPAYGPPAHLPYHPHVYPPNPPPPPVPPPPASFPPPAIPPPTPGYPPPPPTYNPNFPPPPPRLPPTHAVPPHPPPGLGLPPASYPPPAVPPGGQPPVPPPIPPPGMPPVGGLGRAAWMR
Sequence of CDK7/Cyclin H/MAT1 complex (P50613 whole entry): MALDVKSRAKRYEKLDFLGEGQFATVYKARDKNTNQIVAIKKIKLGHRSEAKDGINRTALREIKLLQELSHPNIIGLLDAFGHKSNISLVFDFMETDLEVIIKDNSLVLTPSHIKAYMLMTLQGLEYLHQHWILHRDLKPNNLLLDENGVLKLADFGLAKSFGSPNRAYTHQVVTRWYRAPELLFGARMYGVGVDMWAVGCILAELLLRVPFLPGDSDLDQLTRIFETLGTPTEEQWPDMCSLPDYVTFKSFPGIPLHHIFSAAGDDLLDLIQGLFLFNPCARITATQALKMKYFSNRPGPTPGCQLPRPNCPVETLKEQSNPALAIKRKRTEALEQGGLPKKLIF
Sequence of CDK7/Cyclin H/MAT1 complex (P51946 whole entry partner): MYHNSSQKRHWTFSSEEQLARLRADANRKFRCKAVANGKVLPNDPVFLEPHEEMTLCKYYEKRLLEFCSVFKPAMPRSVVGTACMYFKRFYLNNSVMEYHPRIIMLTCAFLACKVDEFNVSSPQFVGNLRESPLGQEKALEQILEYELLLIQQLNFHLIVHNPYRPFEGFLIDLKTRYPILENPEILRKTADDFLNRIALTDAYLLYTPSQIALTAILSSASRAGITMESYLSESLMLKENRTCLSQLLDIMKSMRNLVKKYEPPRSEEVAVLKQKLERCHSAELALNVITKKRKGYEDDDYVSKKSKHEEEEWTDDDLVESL
Sequence of CDK7/Cyclin H/MAT1 complex (P51948 whole entry partner): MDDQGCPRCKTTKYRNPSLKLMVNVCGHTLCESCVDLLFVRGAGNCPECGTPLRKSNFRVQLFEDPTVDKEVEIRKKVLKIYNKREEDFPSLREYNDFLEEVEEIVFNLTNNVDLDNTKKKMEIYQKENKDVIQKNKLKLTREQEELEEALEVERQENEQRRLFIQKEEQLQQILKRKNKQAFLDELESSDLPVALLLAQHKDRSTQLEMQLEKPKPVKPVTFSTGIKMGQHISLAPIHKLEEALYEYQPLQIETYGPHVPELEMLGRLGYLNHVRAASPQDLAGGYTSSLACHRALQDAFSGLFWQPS

Row | Compound | IC50 (CDK2/Cyclin E1 complex) [nM] | IC50 [1] [nM] | IC50 (CDK9/Cyclin T1 complex) [nM] | IC50 [2] [nM] | IC50 (A673 cells) [nM] | IC50 (HCC70 cells) [nM]
1 | CC1(O)CCN(C(=O)c2ccc3c(-c4nc(NC5CCCNC5)ncc4C(F)(F)F)c[nH]c3c2)C1 (stereo not drawn) [Compound 221] | ≥ 5000 | < 20 | ≥ 5000 | ≥ 5000 | 200 to 5000 | 100 to 1000
2 | CCc1cnc(NC2CCCNC2)nc1-c1c[nH]c2cc(C#N)ccc12 (stereo not drawn) [Compound 246] | ≥ 5000 | < 20 | ≥ 5000 | ≥ 5000 | 200 to 5000 | 100 to 1000
3 | CCc1cnc(NC2CCCNC2)nc1-c1c[nH]c2c(S(C)(=O)=O)c(C#N)ccc12 (stereo not drawn) [Compound 263] | ≥ 5000 | < 20 | ≥ 5000 | ≥ 5000 | 20 to 200 | 100 to 1000
4 | Cn1cc(-c2nc(NC3CCCNC3)ncc2C(F)(F)F)c2cccc(C#N)c21 (stereo not drawn) [Compound 279] | ≥ 5000 | 20 to 200 | ≥ 5000 | ≥ 5000 | 200 to 5000 | 1000 to 5000
5 | COCn1cc(-c2nc(NC3CCCNC3)ncc2C(F)(F)F)c2ccc(C#N)nc21 (stereo not drawn) [Compound 283] | ≥ 5000 | 200 to 5000 | ≥ 5000 | ≥ 5000 | 200 to 5000 | 1000 to 5000
6 | CC1CCNCC1Nc1ncc(C(F)(F)F)c(-c2c[nH]c3ccccc23)n1 (stereo not drawn) [Compound 285] | ≥ 5000 | 200 to 5000 | ≥ 5000 | ≥ 5000 | < 20 | < 100
7 | CCc1cnc(NC2CCCNC2)nc1-c1c[nH]c2nc(C#N)ccc12 (stereo not drawn) [Compound 287] | ≥ 5000 | < 20 | ≥ 5000 | ≥ 5000 | 20 to 200 | 100 to 1000
8 | FC(F)n1ccc(-c2ccc3c(-c4nc(NC5CCCNC5)ncc4C(F)(F)F)c[nH]c3c2)n1 (stereo not drawn) [Compound 289] | 200 to 5000 | 20 to 200 | 200 to 5000 | 200 to 5000 | 20 to 200 | 100 to 1000
9 | FC(F)n1cc(-c2ccc3c(-c4nc(NC5CCCNC5)ncc4C(F)(F)F)c[nH]c3c2)cn1 (stereo not drawn) [Compound 290] | 200 to 5000 | 20 to 200 | 200 to 5000 | 200 to 5000 | 20 to 200 | 100 to 1000
10 | FC(F)(F)c1cnc(NC2CCCNC2)nc1-c1c[nH]c2cc(-c3cc[nH]n3)ccc12 (stereo not drawn) [Compound 291] | 200 to 5000 | < 20 | 200 to 5000 | 200 to 5000 | 20 to 200 | 100 to 1000
11 | N#CC1CCN(C(=O)c2ccc3c(-c4nc(NC5CCCNC5)ncc4C(F)(F)F)c[nH]c3c2)C1 (stereo not drawn) [Compound 292] | 200 to 5000 | < 20 | 200 to 5000 | 200 to 5000 | 20 to 200 | 100 to 1000

Continued, in another order:

Row | IC50 (CDK2/Cyclin E1 complex) [nM] | IC50 [1] [nM] | IC50 (CDK9/Cyclin T1 complex) [nM] | IC50 [2] [nM] | Compound | IC50 (A673 cells) [nM] | IC50 (HCC70 cells) [nM]
12 | 200 to 5000 | < 20 | 200 to 5000 | 200 to 5000 | CC1(C)CCC(Nc2ncc(C(F)(F)F)c(-c3c[nH]c4ccccc34)n2)CN1 (stereo not drawn) [Compound 190] | < 20 | 100 to 1000
13 | 200 to 5000 | < 20 | 200 to 5000 | 200 to 5000 | CS(=O)(=O)c1ccc2c(-c3nc(NC4CCCNC4)ncc3C(F)(F)F)c[nH]c2c1 (stereo not drawn) [Compound 199] | < 20 | 100 to 1000
14 | 200 to 5000 | < 20 | 200 to 5000 | 200 to 5000 | CS(=O)(=O)c1c(C#N)ccc2c(-c3nc(N[C@H]4CCCNC4)ncc3C(F)(F)F)c[nH]c12 [Compound 232] | < 20 | < 100
15 | 200 to 5000 | < 20 | ≥ 5000 | 200 to 5000 | O=C(c1ccc2c(-c3nc(N[C@H]4CCCNC4)ncc3C(F)(F)F)c[nH]c2c1)N1CC[C@@H](O)C1 [Compound 250] | 200 to 5000 | 1000 to 5000
16 | 200 to 5000 | < 20 | 200 to 5000 | 200 to 5000 | N#Cc1ccc2c(-c3nc(NC4CCCNC4)ncc3C(F)(F)F)c[nH]c2n1 (stereo not drawn) [Compound 251] | < 20 | < 100
17 | 200 to 5000 | 20 to 200 | 200 to 5000 | 200 to 5000 | N#Cc1ccc2c(-c3nc(N[C@@H]4CCCNC4)ncc3C(F)(F)F)c[nH]c2c1-c1ccnnc1 [Compound 261] | < 20 | < 100
18 | 200 to 5000 | 20 to 200 | 200 to 5000 | 200 to 5000 | FC(F)(F)c1cnc(NC2CNCC(c3nnc4ccccn34)C2)nc1-c1c[nH]c2ccccc12 (stereo not drawn) [Compound 267] | < 20 | < 100
19 | 200 to 5000 | < 20 | 200 to 5000 | 200 to 5000 | CCc1cnc(NC2CCCNC2)nc1-c1n[nH]c2nc(C#N)ccc12 (stereo not drawn) [Compound 277] | 20 to 200 | 100 to 1000
20 | 200 to 5000 | 20 to 200 | ≥ 5000 | 200 to 5000 | O=C(c1ccc2c(-c3nc(NC4CCCNC4)ncc3C(F)(F)F)c[nH]c2c1)N1CCCC1 (stereo not drawn) [Compound 278] | 20 to 200 | 100 to 1000
21 | 200 to 5000 | < 20 | 200 to 5000 | 200 to 5000 | CCN1CCCC(Nc2ncc(C(F)(F)F)c(-c3c[nH]c4cc(C#N)ccc34)n2)C1 (stereo not drawn) [Compound 284] | 20 to 200 | 100 to 1000
22 | 200 to 5000 | < 20 | 200 to 5000 | 200 to 5000 | CCS(=O)(=O)c1cccc2c(-c3nc(N[C@H]4CCCNC4)ncc3C(F)(F)F)c[nH]c12 [Compound 286] | 200 to 5000 | 1000 to 5000
